Measured values: patent US11642346B2, “Combination therapy for treating cancer” (Epizyme, Inc., priority 2017, dated 2023)

Assays:
CHLA-266 cells [1] = assay: Combination of tazemetostat with other agents, pretreatment model, luminescent cell viability (ATP) assay; assay type: cell-based; conditions: pretreatment model: 4 days tazemetostat, then 4 days agent alone or with tazemetostat, synergy by Loewe Volume, Fa-CI plots
Experimental: (§1) Proliferation data was read for luminescence. Calculations of synergy were performed using the Loewe Volume (Chalice Software) and Fa-CI plots were generated with Calcusyn.

BT-12 cells [2] = assay: as above; assay type: cell-based; conditions: pretreatment model: 4 days tazemetostat, then 4 days agent alone or with tazemetostat, synergy by Loewe Volume, Fa-CI plots
Experimental: as §1

G401 cells = assay: Combination of tazemetostat with other agents, co-treatment model, luminescent cell viability (ATP) assay; assay type: cell-based; conditions: grown for seven days
From the text: (§2) Proliferation data was read for luminescence.

A204 cells = assay: as above; assay type: cell-based; conditions: grown for seven days
From the text: as §2

AT/RT and MRT cell lines = assay: In vitro combination studies of tazemetostat in a panel of AT/RT and MRT cell lines; assay type: cell-based; conditions: cell line models of AT/RT and MRT
MRT = conditions: preclinical models of MRT; cited from earlier work
[3] = tested on: atypical teratoid rhabdoid tumor (AT/RT) cells; assay: Tazemetostat pre-treatment followed by X-ray irradiation, 11 day clonogenic assay; assay type: cell-based; conditions: primed seven days, X-ray 2 Gy
CHLA-266 cells [4] = assay: Antiproliferative activity of tazemetostat, 2D culture, luminescent cell viability assay; assay type: cell-based; conditions: 0.08-10 μM, days 4, 6, 7, 11 and 15
Experimental: (§3) Cell viability was measured in a luminescent cell viability assay and is represented by luminescence counts.

BT-12 cells [5] = assay: as above; assay type: cell-based; conditions: 0.08-10 μM, days 4, 6, 7, 11 and 15
Experimental: as §3

| SMILES | Combination treatment with tazemetostat, CHLA-266 (CHLA-266 cells [1]) | Combination treatment with tazemetostat, BT-12 (BT-12 cells [2]) | Combination treatment with tazemetostat, G401 (G401 cells) | Combination treatment with tazemetostat, A204 (A204 cells) | Antiproliferative effect of combination with tazemetostat (AT/RT and MRT cell lines) | other results |
| --- | --- | --- | --- | --- | --- | --- |
| COc1cc([C@@H]2c3cc4c(cc3[C@@H](O[C@@H]3O[C@@H]5CO[C@@H](C)O[C@H]5[C@H](O)[C@H]3O)[C@H]3COC(=O)[C@H]23)OCO4)cc(OC)c1O [Etoposide] | Additive | Additive | Synergy | Additive |  |  |
| COc1cc(Nc2ncc3c(n2)-c2ccc(Cl)cc2C(c2c(F)cccc2OC)=NC3)ccc1C(=O)O [Alisertib] | Synergy | Synergy | Additive | Additive | Synergistic activity | Combination treatment with tazemetostat, CHLA-266 (CHLA-266 cells [1]; listed as alisertib): synergy; Combination treatment with tazemetostat, BT-12 (BT-12 cells [2]; listed as alisertib): synergy; Combination treatment with tazemetostat, G401 (G401 cells; listed as alisertib): synergy; Combination treatment with tazemetostat, A204 (A204 cells; listed as alisertib): synergy |
| Nc1ccn([C@@H]2O[C@H](CO)[C@@H](O)[C@@H]2O)c(=O)n1 [Cytarabine/Ara-C, Cytarabine] | Additive | Synergy | Additive | Additive |  |  |
| COc1cccc2c1C(=O)c1c(O)c3c(c(O)c1C2=O)C[C@@](O)(C(=O)CO)C[C@@H]3O[C@H]1C[C@H](N)[C@H](O)[C@H](C)O1 [Doxorubicin] | Synergy | Synergy | Additive | Additive | Synergistic activity | Combination treatment with tazemetostat, CHLA-266 (CHLA-266 cells [1]; listed as doxorubicin): synergy; Combination treatment with tazemetostat, BT-12 (BT-12 cells [2]; listed as doxorubicin): synergy; Combination treatment with tazemetostat, G401 (G401 cells; listed as doxorubicin): synergy; Combination treatment with tazemetostat, A204 (A204 cells; listed as doxorubicin): synergy |
| N.N.O=C([O-])C1(C(=O)[O-])CCC1.[Pt+2] [Carboplatin] | Additive | Additive |  | Additive |  |  |
| Nc1ccccc1NC(=O)c1ccc(CNC(=O)OCc2cccnc2)cc1 [Entinostat] | Synergy | Synergy | Synergy | Additive | enhanced the antiproliferative effect | Combination treatment with tazemetostat, CHLA-266 (CHLA-266 cells [1]; listed as entinostat): synergy; Combination treatment with tazemetostat, BT-12 (BT-12 cells [2]; listed as entinostat): synergy; Combination treatment with tazemetostat, G401 (G401 cells; listed as entinostat): synergy; Combination treatment with tazemetostat, A204 (A204 cells; listed as entinostat): synergy |
| CC[C@@]1(O)C(=O)OCc2c1cc1n(c2=O)Cc2cc3c(CN(C)C)c(O)ccc3nc2-1 [Topotecan] | Synergy | Synergy | Synergy | Additive | synergistic interactions |  |
| CO[C@H]1C[C@@H]2CC[C@@H](C)[C@@](O)(O2)C(=O)C(=O)N2CCCC[C@H]2C(=O)O[C@H]([C@H](C)C[C@@H]2CC[C@@H](OCCO)[C@H](OC)C2)CC(=O)[C@H](C)/C=C(\C)[C@@H](O)[C@@H](OC)C(=O)[C@H](C)C[C@H](C)/C=C/C=C/C=C/1C [Everolimus] | Synergy | Synergy | Additive | Additive |  |  |
| CCN(c1cc(-c2ccc(CN3CCOCC3)cc2)cc(C(=O)NCc2c(C)cc(C)[nH]c2=O)c1C)C1CCOCC1 [tazemetostat] |  |  |  |  |  | Tumor response to tazemetostat treatment (MRT): robust tumor regressions; Clonogenic survival, tazemetostat priming prior to X-ray irradiation [3]: reduction in clonogenic survival; Cell death / cell viability (CHLA-266 cells [4]): Time and dose dependent increases in cell death; Cell death / cell viability (BT-12 cells [5]): Time and dose dependent increases in cell death |
| CC[C@]1(O)C[C@H]2CN(CCc3c([nH]c4ccccc34)[C@@](C(=O)OC)(c3cc4c(cc3OC)N(C=O)[C@H]3[C@@](O)(C(=O)OC)[C@H](OC(C)=O)[C@]5(CC)C=CCN6CC[C@]43[C@@H]65)C2)C1 [Vincristine] | Synergy | Synergy |  | Synergy | Synergistic activity | Combination treatment with tazemetostat, CHLA-266 (CHLA-266 cells [1]; listed as vincristine): synergy; Combination treatment with tazemetostat, BT-12 (BT-12 cells [2]; listed as vincristine): synergy; Combination treatment with tazemetostat, G401 (G401 cells; listed as vincristine): synergy; Combination treatment with tazemetostat, A204 (A204 cells; listed as vincristine): synergy |
